Data taken from PubChem BioAssay AID2060895 (Molecular Pharmacology Branch, DTP, NCI, 2025).
Blank lines part the entries; values can stand above or below the compound they belong to.

Test system: PDC 899932-113-R3-J6 complex spheroid viability
Experiment: Anticancer human tumor 899932-113-R3-J6-PDC patient-derived melanoma cell line growth inhibition [RAS]
Conditions: for IC50: curve of first compound; for viability, T/C: stronger effect = lower value
Procedure, shortened: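 Agents were tested in combination matrices in half-log decrements from a top concentration at or near clinical Cmax (10 microM if undetermined). Targets were multi-cell spheroids of tumour lines plus HUVEC and MSC stromal cells.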

[1] = second compound 0.0316 µM, first compound 0.0316 µM
[2] = second compound 0.0316 µM, first compound 0.1 µM
[3] = second compound 0.0316 µM, first compound 0.316 µM
[4] = second compound 0.0316 µM, first compound 1 µM
[5] = second compound 0.1 µM, first compound 0.0316 µM
[6] = second compound 0.1 µM, first compound 0.1 µM
[7] = second compound 0.1 µM, first compound 0.316 µM
[8] = second compound 0.1 µM, first compound 1 µM
[9] = second compound 0.316 µM, first compound 0.0316 µM
[10] = second compound 0.316 µM, first compound 0.1 µM
[11] = second compound 0.316 µM, first compound 0.316 µM
[12] = second compound 0.316 µM, first compound 1 µM
[13] = second compound 1 µM, first compound 0.0316 µM
[14] = second compound 1 µM, first compound 0.1 µM
[15] = second compound 1 µM, first compound 0.316 µM
[16] = second compound 1 µM, first compound 1 µM
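Wherever viability, T/C is given: spheroids exposed to agents for seven days before readout; 100% = DMSO vehicle control wells.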

IC50 (second compound 0.000949 µM): 5.85 nM | IC50 (second compound 0.003 µM): < 3.16 nM | IC50 (second compound 0.00949 µM): < 3.16 nM | IC50 (second compound 0.03 µM): < 3.16 nM | IC50 (second compound 0.0949 µM): < 3.16 nM | IC50 (second compound 0.3 µM): < 3.16 nM
SMILES: Nc1ccn(C2OC(CO)C(O)C2(F)F)c(=O)n1 (stereo unspecified) + CCn1c(-c2cc(N3CCN(C)CC3)cnc2C(C)OC)c2c3cc(ccc31)-c1csc(n1)CC(NC(=O)C1CC1C)C(=O)N1CCCC(N1)C(=O)OCC(C)(C)C2
viability, T/C (second compound 0.000949 µM, first compound 0.00316 µM): 62.9% | viability, T/C (second compound 0.000949 µM, first compound 0.01 µM): 38.6% | viability, T/C (second compound 0.000949 µM, first compound 0.0316 µM): 19.2% | viability, T/C (second compound 0.000949 µM, first compound 0.1 µM): 10.9% | viability, T/C (second compound 0.000949 µM, first compound 0.316 µM): 10.9% | viability, T/C (second compound 0.000949 µM, first compound 1 µM): 12.7% | viability, T/C (second compound 0.003 µM, first compound 0.00316 µM): 34.1% | viability, T/C (second compound 0.003 µM, first compound 0.01 µM): 22.6% | viability, T/C (second compound 0.003 µM, first compound 0.0316 µM): 9.17% | viability, T/C (second compound 0.003 µM, first compound 0.1 µM): 6.99% | viability, T/C (second compound 0.003 µM, first compound 0.316 µM): 7.8% | viability, T/C (second compound 0.003 µM, first compound 1 µM): 7.27% | viability, T/C (second compound 0.00949 µM, first compound 0.00316 µM): 3.07% | viability, T/C (second compound 0.00949 µM, first compound 0.01 µM): 3.15% | viability, T/C (second compound 0.00949 µM, first compound 0.0316 µM): 3.74% | viability, T/C (second compound 0.00949 µM, first compound 0.1 µM): 3.5% | viability, T/C (second compound 0.00949 µM, first compound 0.316 µM): 3.59% | viability, T/C (second compound 0.00949 µM, first compound 1 µM): 3.95% | viability, T/C (second compound 0.03 µM, first compound 0.00316 µM): 2.89% | viability, T/C (second compound 0.03 µM, first compound 0.01 µM): 2.31% | viability, T/C (second compound 0.03 µM, first compound 0.0316 µM): 3.09% | viability, T/C (second compound 0.03 µM, first compound 0.1 µM): 3.08% | viability, T/C (second compound 0.03 µM, first compound 0.316 µM): 2.1% | viability, T/C (second compound 0.03 µM, first compound 1 µM): 2.81% | viability, T/C (second compound 0.0949 µM, first compound 0.00316 µM): 2.38% | viability, T/C (second compound 0.0949 µM, first compound 0.01 µM): 1.69% | viability, T/C (second compound 0.0949 µM, first compound 0.0316 µM): 2.42% | viability, T/C (second compound 0.0949 µM, first compound 0.1 µM): 2.17% | viability, T/C (second compound 0.0949 µM, first compound 0.316 µM): 1.85% | viability, T/C (second compound 0.0949 µM, first compound 1 µM): 2.61% | viability, T/C (second compound 0.3 µM, first compound 0.00316 µM): 1.86% | viability, T/C (second compound 0.3 µM, first compound 0.01 µM): 2% | viability, T/C (second compound 0.3 µM, first compound 0.0316 µM): 2.22% | viability, T/C (second compound 0.3 µM, first compound 0.1 µM): 2.4% | viability, T/C (second compound 0.3 µM, first compound 0.316 µM): 2.26% | viability, T/C (second compound 0.3 µM, first compound 1 µM): 1.79%

IC50 (second compound 0.00316 µM): 19.4 nM | IC50 (second compound 0.01 µM): 19.3 nM | IC50 (second compound 0.0316 µM): 21.2 nM | IC50 (second compound 0.1 µM): 22.2 nM | IC50 (second compound 0.316 µM): 19.1 nM | IC50 (second compound 1 µM): 17.4 nM
SMILES: Nc1ccn(C2OC(CO)C(O)C2(F)F)c(=O)n1 (stereo unspecified) + C=CC(=O)N1CCN(c2nc(OCC3CCCN3C)nc3c(F)c(-c4nc(N)cc(C)c4C(F)(F)F)c(Cl)cc23)C(C)C1
viability, T/C (second compound 0.00316 µM, first compound 0.00316 µM): 98.2% | viability, T/C (second compound 0.00316 µM, first compound 0.01 µM): 68.9% | viability, T/C (second compound 0.00316 µM, first compound 0.0316 µM): 37.3% | viability, T/C (second compound 0.00316 µM, first compound 0.1 µM): 20.8% | viability, T/C (second compound 0.00316 µM, first compound 0.316 µM): 23.6% | viability, T/C (second compound 0.00316 µM, first compound 1 µM): 25.7% | viability, T/C (second compound 0.01 µM, first compound 0.00316 µM): 97.5% | viability, T/C (second compound 0.01 µM, first compound 0.01 µM): 73.5% | viability, T/C (second compound 0.01 µM, first compound 0.0316 µM): 32.8% | viability, T/C (second compound 0.01 µM, first compound 0.1 µM): 20% | viability, T/C (second compound 0.01 µM, first compound 0.316 µM): 24.9% | viability, T/C (second compound 0.01 µM, first compound 1 µM): 22.6% | viability, T/C (second compound 0.0316 µM, first compound 0.00316 µM): 99.3% | viability, T/C (second compound 0.0316 µM, first compound 0.01 µM): 74.4% | viability, T/C [1]: 38.5% | viability, T/C [2]: 18.3% | viability, T/C [3]: 20.9% | viability, T/C [4]: 24% | viability, T/C (second compound 0.1 µM, first compound 0.00316 µM): 106% | viability, T/C (second compound 0.1 µM, first compound 0.01 µM): 86% | viability, T/C [5]: 34% | viability, T/C [6]: 23.8% | viability, T/C [7]: 21.7% | viability, T/C [8]: 23.2% | viability, T/C (second compound 0.316 µM, first compound 0.00316 µM): 98.9% | viability, T/C (second compound 0.316 µM, first compound 0.01 µM): 73% | viability, T/C [9]: 32.4% | viability, T/C [10]: 22.6% | viability, T/C [11]: 24.1% | viability, T/C [12]: 26.3% | viability, T/C (second compound 1 µM, first compound 0.00316 µM): 97.1% | viability, T/C (second compound 1 µM, first compound 0.01 µM): 64.2% | viability, T/C [13]: 35.5% | viability, T/C [14]: 21.9% | viability, T/C [15]: 17.9% | viability, T/C [16]: 24.3%

IC50 (second compound 0.0316 µM): < 31.6 nM | IC50 (second compound 0.1 µM): < 31.6 nM | IC50 (second compound 0.316 µM): < 31.6 nM | IC50 (second compound 1 µM): < 31.6 nM | IC50 (second compound 3.16 µM): < 31.6 nM | IC50 (second compound 10 µM): < 31.6 nM
SMILES: CC(=O)OC12COC1CC(O)C1(C)C(=O)C(O)C3=C(C)C(OC(=O)C(O)C(NC(=O)OC(C)(C)C)c4ccccc4)CC(O)(C(OC(=O)c4ccccc4)C21)C3(C)C (stereo unspecified) + C#Cc1c(F)ccc2cc(O)cc(-c3ncc4c(N5CC6CCC(C5)N6)nc(OCC56CCCN5CC(F)C6)nc4c3F)c12
viability, T/C [1]: 33.1% | viability, T/C [2]: 32.1% | viability, T/C [3]: 39.9% | viability, T/C [4]: 48.3% | viability, T/C (second compound 0.0316 µM, first compound 3.16 µM): 67.1% | viability, T/C (second compound 0.0316 µM, first compound 10 µM): 67.7% | viability, T/C [5]: 31.8% | viability, T/C [6]: 31.7% | viability, T/C [7]: 36.1% | viability, T/C [8]: 49.5% | viability, T/C (second compound 0.1 µM, first compound 3.16 µM): 74.5% | viability, T/C (second compound 0.1 µM, first compound 10 µM): 81.8% | viability, T/C [9]: 32.3% | viability, T/C [10]: 30.5% | viability, T/C [11]: 38.8% | viability, T/C [12]: 53.4% | viability, T/C (second compound 0.316 µM, first compound 3.16 µM): 67.4% | viability, T/C (second compound 0.316 µM, first compound 10 µM): 82.8% | viability, T/C [13]: 30.7% | viability, T/C [14]: 35% | viability, T/C [15]: 41.3% | viability, T/C [16]: 45.5% | viability, T/C (second compound 1 µM, first compound 3.16 µM): 75.1% | viability, T/C (second compound 1 µM, first compound 10 µM): 78.9% | viability, T/C (second compound 3.16 µM, first compound 0.0316 µM): 32.1% | viability, T/C (second compound 3.16 µM, first compound 0.1 µM): 34.4% | viability, T/C (second compound 3.16 µM, first compound 0.316 µM): 37.5% | viability, T/C (second compound 3.16 µM, first compound 1 µM): 49.6% | viability, T/C (second compound 3.16 µM, first compound 3.16 µM): 63.2% | viability, T/C (second compound 3.16 µM, first compound 10 µM): 73.9% | viability, T/C (second compound 10 µM, first compound 0.0316 µM): 35.3% | viability, T/C (second compound 10 µM, first compound 0.1 µM): 28.9% | viability, T/C (second compound 10 µM, first compound 0.316 µM): 36.4% | viability, T/C (second compound 10 µM, first compound 1 µM): 46.5% | viability, T/C (second compound 10 µM, first compound 3.16 µM): 66.4% | viability, T/C (second compound 10 µM, first compound 10 µM): 69.7%
